According to patent US10577383B2, “Macrocyclic inhibitors of myeloperoxidase” (BRISTOL-MYERS SQUIBB COMPANY, priority 2016, dated 2020):
Where two headings read alike, the source gives them in different places.

Legend:
myeloperoxidase [1] = biological target: T1, myeloperoxidase (Homo sapiens (Human), UniProt P05164); assay: MPO Peroxidation Assay (Amplex Red Assay); type: biochemical; conditions: MPO peroxidation activity, 100 mM KPi (pH 7.4), ten minute preincubation; potency ranges defined in nM
T1 sequence (P05164 49-745): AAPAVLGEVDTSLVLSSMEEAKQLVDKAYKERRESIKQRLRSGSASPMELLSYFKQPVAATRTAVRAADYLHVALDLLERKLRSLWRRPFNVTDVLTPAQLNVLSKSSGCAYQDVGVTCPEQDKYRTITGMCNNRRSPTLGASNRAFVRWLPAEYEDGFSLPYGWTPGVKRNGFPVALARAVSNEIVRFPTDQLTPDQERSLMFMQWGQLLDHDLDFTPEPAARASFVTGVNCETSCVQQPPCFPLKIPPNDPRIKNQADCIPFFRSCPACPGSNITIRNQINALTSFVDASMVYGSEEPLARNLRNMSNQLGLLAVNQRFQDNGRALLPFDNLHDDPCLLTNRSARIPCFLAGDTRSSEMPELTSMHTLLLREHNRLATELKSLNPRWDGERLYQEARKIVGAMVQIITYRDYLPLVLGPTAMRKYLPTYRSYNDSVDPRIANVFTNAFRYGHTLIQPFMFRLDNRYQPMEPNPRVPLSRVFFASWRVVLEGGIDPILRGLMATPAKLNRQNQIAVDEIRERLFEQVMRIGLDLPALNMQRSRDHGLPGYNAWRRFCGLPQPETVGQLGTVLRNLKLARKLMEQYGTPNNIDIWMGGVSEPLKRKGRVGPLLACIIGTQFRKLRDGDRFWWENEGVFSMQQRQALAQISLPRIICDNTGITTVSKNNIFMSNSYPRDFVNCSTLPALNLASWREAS
Protocol: MPO Peroxidation Assay (Amplex Red Assay)
MPO peroxidation activity was measured in 100 mM KPi (pH 7.4) by utilizing the non-fluorescent reagent Amplex Red (Invitrogen Cat. #A12222) which can be oxidized to the highly fluorescent resorufin. Amplex Red is oxidized by the peroxidase action of MPO to resorufin. Reactions were carried out in 50 μL total volume by adding a 25 μL mixture of 200 pM myeloperoxidase and 40 nM H2O2 (Sigma #349887) to 100 nL inhibitor in 100% DMSO in a 384 well Perkin Elmer Optiplate. Enzyme and compound were preincubated for ten minutes at room temperature.
After the ten minute preincubation, 25 μL of an Amplex Red mixture containing 200 μM Amplex Red and 10 mM H2O2 was added to the plate. Kinetic determinations were carried out immediately on a Perkin Elmer Envision (15 minute kinetic read, Ex: 535 nm, Em: 590 nm).
(§1) IC50 values were calculated by determining the slope of the linear portion of the kinetic trace (180-540 secs), and using that calculated slope to determine % inhibition occurring at each concentration of inhibitor using the following equation:
(§2) [formula] where A=minimal Y value (activity level of inhibited sample), B=maximal Y value (activity level of uninhibited sample), C=Log IC50, D=Hill Slope, x=concentration of inhibitor. MPO Chlorination Assay (APF Assay) MPO chlorination activity was measured in 100 mM KPi (pH 7.4) by utilizing the non-fluorescent reagent Aminophenyl fluorescein (APF, Invitrogen Cat. #A36003). APF is cleaved by (—OCl) to yield the fluorescent compound fluorescein. Reactions were carried out in 50 μL total volume by adding a 25 μL mixture of 200 pM myeloperoxidase and 120 mM NaCl to 100 nL inhibitor in 100% DMSO in a 384 well, non-binding surface clear bottom plate (Corning #3655). Enzyme, inhibitor, and chloride were preincubated for ten minutes at room temperature.

myeloperoxidase [2] = biological target: T1, myeloperoxidase; assay: MPO Chlorination Assay (APF Assay); type: biochemical; conditions: MPO chlorination activity, 100 mM KPi (pH 7.4), 120 mM NaCl, ten minute preincubation; potency ranges defined in nM
Protocol: as §2
After the ten minute preincubation, 25 μL of an APF mixture containing […], 120 mM NaCl and 10 μM H2O2 was added to the plate using the internal dispensing system of a Hammatsu FDSS 6000. Kinetic determinations were carried out immediately on the FDSS 6000 (3 minute kinetic read, 1 read every second, ex: 485 nm, em: 535 nm). IC50 values for inhibitors were calculated by taking the slope of the linear portion of the kinetic measurement (20 seconds to 80-120 secs).
as §1
[formula] where A=minimal Y value (activity level of inhibited sample), B=maximal Y value (activity level of uninhibited sample), C=Log IC50, D=Hill Slope, x=concentration of inhibitor. EPX Bromination Assay

IC50 (myeloperoxidase [1]) [nM]	IC50 (myeloperoxidase [2]) [nM]	SMILES	further results
1000 to 10000	101 to 999	Nc1cc(C2CCNCc3cc(cc(OC(F)(F)F)c3)COc3cccc(c3)Cn3cc2cn3)c2nn[nH]c2n1 (stereo not drawn) [Example 23, 7-[14-(Trifluoromethoxy)-18-oxa-3,4,10-triazatetracyclo[17.3.1.1^3,^6.1^12,^1^6]pentacosa-1(23),4,6(25),12,14,16(24),19,21-octaen-7-yl]-3H-[1,2,3]triazolo[4,5-b]pyridin-5-amine]	
101 to 999	1 to 100	Nc1cc(C2CCNCc3cc(Cl)cc(c3)OCc3cccc(c3)Cn3cc2cn3)c2nn[nH]c2n1 (stereo not drawn) [Example 15, 7-{14-Chloro-17-oxa-3,4,10-triazatetracyclo[17.3.1.1^3,^6.1^12,^1^6]pentacosa-1(23),4,6(25),12(24),13,15,19,21-octaen-7-yl}-3H-[1,2,3]triazolo[4,5-b]pyridin-5-amine]	
101 to 999	1 to 100	Nc1cc(C2CCNCCc3cccc(c3)OCc3cccc(c3)Cn3cc2cn3)c2nn[nH]c2n1 (stereo not drawn) [Example 16, 7-{18-Oxa-3,4,10-triazatetracyclo[18.3.1.1^3,^6.1^13,^1^7]hexacosa-1(24),4,6(26),13(25),14,16,20,22-octaen-7-yl}-3H-[1,2,3]triazolo[4,5-b]pyridin-5-amine]	
101 to 999	1 to 100	Nc1cc(C2CCNCC3(CCCC3)COc3cccc(c3)Cn3cc2cn3)c2nn[nH]c2n1 (stereo not drawn) [Example 22, 7-{14′-Oxa-3′,4′,10′-triazaspiro[cyclopentane-1,12′-tricyclo[13.3.1.1^3,^6]icosane]-1′(19′),4′,6′(20′),15′,17′-pentaen-7′-yl}-3H-[1,2,3]triazolo[4,5-b]pyridin-5-amine]	
1 to 100	1 to 100	Nc1cc([C@H]2CCN[C@H]3C[C@H](Cc4ccccc4)[C@@H](C3)Oc3cccc(c3)Cn3cc2cn3)c2nn[nH]c2n1 [Example 26, 7-[(3R,4S,6S,10R)-4-Benzyl-2-oxa-7,13,14-triazatetracyclo[14.3.1.1^3,^6.1^11,^1^4]docosa-1(19),11(21),12,16(20),17-pentaen-10-yl]-3H-[1,2,3]triazolo[4,5-b]pyridin-5-amine]	
101 to 999	1 to 100	C[C@@H]1Cc2cccc(c2)Oc2cccc(c2)Cn2cc(cn2)C(c2cc(N)nc3[nH]nnc23)CCN1 (stereo partly drawn) [Example 8, 7-[(11R)-11-Methyl-18-oxa-3,4,10-triazatetracyclo[17.3.1.1^3,^6.1^13,^1^7]pentacosa-1(23),4,6(25),13,15,17(24),19,21-octaen-7-yl]-3H-[1,2,3]triazolo[4,5-b]pyridin-5-amine]	
101 to 999	1 to 100	Nc1cc(C2CCN[C@H]3CC[C@@H](COc4cccc(c4)Cn4cc2cn4)C3)c2nn[nH]c2n1 (stereo partly drawn) [Example 32, 7-[(11S,14R)-16-Oxa-3,4,10-triazatetracyclo[15.3.1.1^3,^6.1^11,^1^4]tricosa-1(21),4,6(23),17,19-pentaen-7-yl]-3H-[1,2,3]triazolo[4,5-b]pyridin-5-amine]	
101 to 999	1 to 100	Nc1cc(C2CCNCC(=O)N(CCc3ccccc3)Cc3cccc(c3)Cn3cc2cn3)c2nn[nH]c2n1 (stereo not drawn) [Example 33, 7-{5-Amino-3H-[1,2,3]triazolo[4,5-b]pyridin-7-yl}-13-(2-phenylethyl)-3,4,10,13-tetraazatricyclo[13.3.1.1^3,^6]icosa-1(19),4,6(20),15,17-pentaen-12-one]	
1000 to 10000	101 to 999	COc1ccc2cc1OCc1cccc(c1)Cn1cc(cn1)C(c1cc(N)nc3[nH]nnc13)CCNC2 (stereo not drawn) [Example 13, 7-{15-Methoxy-17-oxa-3,4,10-triazatetracyclo[17.3.1.1^3,^6.1^12,^1^6]pentacosa-1(23),4,6(25),12(24),13,15,19,21-octaen-7-yl}-3H-[1,2,3]triazolo[4,5-b]pyridin-5-amine]	
1000 to 10000	1 to 100	Nc1cc(C2CCNCc3ccc(F)c(c3)OCc3cccc(c3)Cn3cc2cn3)c2nn[nH]c2n1 (stereo not drawn) [Example 14, 7-{15-Fluoro-17-oxa-3,4,10-triazatetracyclo[17.3.1.1^3,^6.1^12,^1^6]pentacosa-1(23),4,6(25),12(24),13,15,19,21-octaen-7-yl}-3H-[1,2,3]triazolo[4,5-b]pyridin-5-amine]	
101 to 999	1 to 100	Nc1cc(C2CCN3C[C@H](Cc4ccccc4)[C@@H](C3)Oc3cccc(c3)Cn3cc2cn3)c2nn[nH]c2n1 (stereo partly drawn) [Example 31, 7-[(3S,4S)-4-Benzyl-2-oxa-6,12,13-triazatetracyclo[13.3.1.1^3,^6.1^1^0,^13]henicosa-1(18),10(20),11,15(19),16-pentaen-9-yl]-3H-[1,2,3]triazolo[4,5-b]pyridin-5-amine]	
1000 to 10000	1000 to 10000	NC(=O)CN1CCc2cccc(c2)Oc2cccc(c2)Cn2cc(cn2)C(c2cc(N)nc3[nH]nnc23)CC1 (stereo not drawn) [Example 35, 2-(7-{15-Amino-3H-[1,2,3]triazolo[4,5-b]pyridin-7-yl}-18-oxa-3,4,10-triazatetracyclo[17.3.1.1^3,^6.1^13,^17]pentacosa-1(23),4,6(25),13,15,17(24),19,21-octaen-10-yl)acetamide]	

The remaining lines, values behind:

SMILES	IC50 (myeloperoxidase [1]) [nM]	IC50 (myeloperoxidase [2]) [nM]	further results
CC(C)(C)OC(=O)N(C/C=C(\I)c1cc(NC(c2ccccc2)(c2ccccc2)c2ccccc2)nc2c1nnn2C(c1ccccc1)(c1ccccc1)c1ccccc1)[C@H]1C[C@H](Cc2ccccc2)[C@H](Oc2cccc(Cn3cc(B4OC(C)(C)C(C)(C)O4)cn3)c2)C1			ring closure, isolated yield (the molecule shown is the open-chain precursor, cc_pd bond, 15-membered ring, PdCl2(dppf)-CH2Cl2/K2CO3, dioxane/H2O, 1.0 mM, 85.0 °C): 45%
Oc1cccc(Cn2cc(C(CCNCc3cccc(I)c3)c3cc(NC(c4ccccc4)(c4ccccc4)c4ccccc4)nc4c3nnn4C(c3ccccc3)(c3ccccc3)c3ccccc3)cn2)c1 (stereo not drawn)			ring closure, isolated yield (the molecule shown is the open-chain precursor, ether bond, 16-membered ring, CuI/1,10-phenanthroline/Cs2CO3, toluene, 4.8 mM, 150.0 °C): 29%
CC(C)(C)OC(=O)N(C/C=C(\I)c1cc(NC(c2ccccc2)(c2ccccc2)c2ccccc2)nc2c1nnn2C(c1ccccc1)(c1ccccc1)c1ccccc1)CC(=O)N(CCc1ccccc1)Cc1cccc(Cn2cc(B3OC(C)(C)C(C)(C)O3)cn2)c1			ring closure, isolated yield (the molecule shown is the open-chain precursor, cc_pd bond, 15-membered ring, PdCl2(dppf)-CH2Cl2/K2CO3, dioxane/H2O, 1.07 mM, 85.0 °C): 42%
C[C@@H](Cc1cccc(Oc2cccc(Cn3cc(B4OC(C)(C)C(C)(C)O4)cn3)c2)c1)N(C/C=C(\I)c1cc(NC(c2ccccc2)(c2ccccc2)c2ccccc2)nc2c1nnn2C(c1ccccc1)(c1ccccc1)c1ccccc1)C(=O)OC(C)(C)C			ring closure, isolated yield (the molecule shown is the open-chain precursor, cc_pd bond, 17-membered ring, PdCl2(dppf)-CH2Cl2/K2CO3, dioxane/H2O, 1.28 mM, 85.0 °C): 36%
Nc1cc(C2CCNCCc3cccc(c3)Oc3cccc(c3)Cn3cc2cn3)c2nn[nH]c2n1 (stereo not drawn) [Example 3, 7-{18-oxa-3,4,10-triazatetracyclo[17.3.1.1^3,^6.1^13,^1^7]pentacosa-1(23),4,6(25),13,15,17(24),19,21-octaen-7-yl}-3H-[1,2,3]triazolo[4,5-b]pyridin-5-amine]	1 to 100	1 to 100	
CC(C)(C)OC(=O)N(C/C=C(\I)c1cc(NC(c2ccccc2)(c2ccccc2)c2ccccc2)nc2c1nnn2C(c1ccccc1)(c1ccccc1)c1ccccc1)CCCOc1cccc(Cn2cc(B3OC(C)(C)C(C)(C)O3)cn2)c1			ring closure, isolated yield (the molecule shown is the open-chain precursor, cc_pd bond, 15-membered ring, PdCl2(dppf)-CH2Cl2/K2CO3, dioxane/H2O, 1.04 mM, 85.0 °C): 39.1%
CC1(C)OB(c2cnn(Cc3cccc(Oc4cccc(CCNC/C=C(\I)c5cc(NC(c6ccccc6)(c6ccccc6)c6ccccc6)nc6c5nnn6C(c5ccccc5)(c5ccccc5)c5ccccc5)c4)c3)c2)OC1(C)C			ring closure, isolated yield (the molecule shown is the open-chain precursor, cc_pd bond, 17-membered ring, PdCl2(dppf)-CH2Cl2/K2CO3, dioxane/H2O, 2.45 mM, 85.0 °C): 35.1%
CC(C)(C)OC(=O)N1CC=C(c2cc(N)nc3[nH]nnc23)c2cnn(c2)Cc2cccc(c2)O[C@@H]2CC13CCC2(c1ccccc1)CC3			ring closure, isolated yield (from CC(C)(C)OC(=O)N(C/C=C(\c1cnn(Cc2cccc(O)c2)c1)c1cc(N)nc2[nH]nnc12)C12CCC(c3ccccc3)(CC1)[C@@H](O)C2, ether bond, 15-membered ring, cyanomethylenetributylphosphorane, toluene, 5.0 mM, 100.0 °C): 85%
